From ChEMBL document CHEMBL2412996, “Increase of anti-HIV activity of C-peptide fusion inhibitors using a bivalent drug design approach” (Bioorg Med Chem Lett, 2013)
Numbered stars: 1 amine (or outer) side, 2 acyl side, 3 side chain; on linkers, the order of the positions; unused ones are H or OH. Square brackets hold non-standard residues; d marks the D form. Peptide text beside a SMILES is read from it. * marks the point of attachment. X2 = CC(=O)N[C@@H](CS)C(=O)OCCOCCOCCN([C@@H](Cc1c[nH]c2ccccc12)C(=O)[*:2])[*:1]; X1 = CC(=O)N[C@@H](CS)C(=O)OCCOCCOCCNCCC(=O)*; Ahx = NCCCCCC(=O)O

Tests used:
Assay type in all cases: cell-based
TZM-bl [1] = assay: Inhibition of HIV1 HXB2 gp160-mediated cell-cell fusion between viral envelope expressing human HL2/3 cells to human TZM-bl cells expressing CD4, tat, and rev by luciferase reporter gene assay relative to SC22EK; conditions: Human immunodeficiency virus 1
[2] = Inhibition of HIV1 HXB2 gp160-mediated cell-cell fusion between viral envelope expressing human HL2/3 cells to human TZM-bl cells expressing CD4, tat, and rev by luciferase reporter gene assay; conditions: Human immunodeficiency virus 1, HXB2, TZM-bl
TZM-bl [3] = assay: Inhibition of HIV1 HXB2 gp160-mediated cell-cell fusion between viral envelope expressing human HL2/3 cells to human TZM-bl cells expressing CD4, tat, and rev by luciferase reporter gene assay relative to C22; conditions: Human immunodeficiency virus 1
TZM-bl [4] = assay: Inhibition of HIV1 HXB2 gp160-mediated cell-cell fusion between viral envelope expressing human HL2/3 cells to human TZM-bl cells expressing CD4, tat, and rev by luciferase reporter gene assay relative to C29; conditions: Human immunodeficiency virus 1

Row | Structure (SMILES) | Ratio (TZM-bl [1]) | IC50 [2] | Ratio (TZM-bl [3]) | Ratio (TZM-bl [4])
1 | CC[C@H](C)[C@H](NC(=O)[C@H](CC(C)C)NC(=O)[C@H](CCC(=O)O)NC(=O)[C@H](CCC(=O)O)NC(=O)[C@@H](NC(=O)[C@H](CCCCN)NC(=O)[C@H](CCCCN)NC(=O)[C@@H](NC(=O)[C@H](Cc1ccc(O)cc1)NC(=O)[C@H](CCC(=O)O)NC(=O)[C@H](CCC(=O)O)NC(=O)[C@@H](NC(=O)[C@H](CCCCN)NC(=O)[C@H](CCCCN)NC(=O)[C@H](CC(=O)O)NC(=O)[C@H](Cc1c[nH]c2ccccc12)NC(=O)[C@H](CCC(=O)O)NC(=O)[C@H](CCC(=O)O)NC(=O)[C@H](Cc1c[nH]c2ccccc12)NC(=O)CCCCCNC(=O)[C@H](CS)NC(C)=O)[C@@H](C)CC)[C@@H](C)O)[C@@H](C)CC)C(=O)N[C@@H](CCCCN)C(=O)N[C@@H](CCCCN)C(=O)N[C@@H](CO)C(=O)O (Ac-C[Ahx]WEEWDKKIEEYTKKIEELIKKS-OH) | 8.97 | 38.6 nM | – | –
2 | CC[C@H](C)[C@H](NC(=O)[C@H](CC(C)C)NC(=O)[C@H](CO)NC(=O)[C@H](Cc1cnc[nH]1)NC(=O)[C@@H](NC(=O)[C@H](CC(C)C)NC(=O)[C@H](CO)NC(=O)[C@@H](NC(=O)[C@H](Cc1ccc(O)cc1)NC(=O)[C@H](CC(N)=O)NC(=O)[C@H](CC(N)=O)NC(=O)[C@@H](NC(=O)[C@H](CCC(=O)O)NC(=O)[C@H](CCCNC(=N)N)NC(=O)[C@H](CC(=O)O)NC(=O)[C@H](Cc1c[nH]c2ccccc12)NC(=O)[C@H](CCC(=O)O)NC(=O)[C@H](CCSC)NC(=O)[C@H](Cc1c[nH]c2ccccc12)NC(=O)CCCCCNC(=O)[C@H](CS)NC(C)=O)[C@@H](C)CC)[C@@H](C)O)[C@@H](C)CC)C(=O)N[C@@H](CCC(=O)O)C(=O)N[C@@H](CCC(=O)O)C(=O)N[C@@H](CO)C(=O)O (Ac-C[Ahx]WMEWDREINNYTSLIHSLIEES-OH) | – | 561 nM | 2.21 | –
3 | CC[C@H](C)[C@H](NC(=O)[C@H](CC(C)C)NC(=O)[C@H](CO)NC(=O)[C@H](Cc1cnc[nH]1)NC(=O)[C@@H](NC(=O)[C@H](CC(C)C)NC(=O)[C@H](CO)NC(=O)[C@@H](NC(=O)[C@H](Cc1ccc(O)cc1)NC(=O)[C@H](CC(N)=O)NC(=O)[C@H](CC(N)=O)NC(=O)[C@@H](NC(=O)[C@H](CCC(=O)O)NC(=O)[C@H](CCCNC(=N)N)NC(=O)[C@H](CC(=O)O)NC(=O)[C@H](Cc1c[nH]c2ccccc12)NC(=O)[C@H](CCC(=O)O)NC(=O)[C@H](CCSC)NC(=O)[C@H](Cc1c[nH]c2ccccc12)NCCOCCOCCOC(=O)[C@H](CS)NC(C)=O)[C@@H](C)CC)[C@@H](C)O)[C@@H](C)CC)C(=O)N[C@@H](CCC(=O)O)C(=O)N[C@@H](CCC(=O)O)C(=O)N[C@@H](CO)C(=O)N[C@@H](CCC(N)=O)C(=O)N[C@@H](CC(N)=O)C(=O)N[C@@H](CCC(N)=O)C(=O)N[C@@H](CCC(N)=O)C(=O)N[C@@H](CCC(=O)O)C(=O)N[C@@H](CCCCN)C(=O)N[C@@H](CC(N)=O)C(=O)O (H-[X2]MEWDREINNYTSLIHSLIEESQNQQEKN-OH) | – | 15.4 nM | – | 7.69
4 | CC[C@H](C)[C@H](NC(=O)[C@H](CC(C)C)NC(=O)[C@H](CO)NC(=O)[C@H](Cc1cnc[nH]1)NC(=O)[C@@H](NC(=O)[C@H](CC(C)C)NC(=O)[C@H](CO)NC(=O)[C@@H](NC(=O)[C@H](Cc1ccc(O)cc1)NC(=O)[C@H](CC(N)=O)NC(=O)[C@H](CC(N)=O)NC(=O)[C@@H](NC(=O)[C@H](CCC(=O)O)NC(=O)[C@H](CCCNC(=N)N)NC(=O)[C@H](CC(=O)O)NC(=O)[C@H](Cc1c[nH]c2ccccc12)NC(=O)[C@H](CCC(=O)O)NC(=O)[C@H](CCSC)NC(=O)[C@H](Cc1c[nH]c2ccccc12)NC(=O)CCNCCOCCOCCOC(=O)[C@H](CS)NC(C)=O)[C@@H](C)CC)[C@@H](C)O)[C@@H](C)CC)C(=O)N[C@@H](CCC(=O)O)C(=O)N[C@@H](CCC(=O)O)C(=O)N[C@@H](CO)C(=O)N[C@@H](CCC(N)=O)C(=O)N[C@@H](CC(N)=O)C(=O)N[C@@H](CCC(N)=O)C(=O)N[C@@H](CCC(N)=O)C(=O)N[C@@H](CCC(=O)O)C(=O)N[C@@H](CCCCN)C(=O)N[C@@H](CC(N)=O)C(=O)O (X1-WMEWDREINNYTSLIHSLIEESQNQQEKN-OH) | – | 14.7 nM | – | 8.08
